Measurements published in patent US10947274B1 (priority 2018, dated 2021).

Assays:
[1] = type: physicochemical
[2] = target: human α9α10 nicotinic acetylcholine receptor (nAChR) (human) (UniProt Q9UGM1); assay: cell-based or functional assay
[3] = target: α7 nAChR (Rattus norvegicus, UniProt Q05941); conditions: cited from earlier work
α7 nAChR, sequence (Q05941 23-502 limits assumed): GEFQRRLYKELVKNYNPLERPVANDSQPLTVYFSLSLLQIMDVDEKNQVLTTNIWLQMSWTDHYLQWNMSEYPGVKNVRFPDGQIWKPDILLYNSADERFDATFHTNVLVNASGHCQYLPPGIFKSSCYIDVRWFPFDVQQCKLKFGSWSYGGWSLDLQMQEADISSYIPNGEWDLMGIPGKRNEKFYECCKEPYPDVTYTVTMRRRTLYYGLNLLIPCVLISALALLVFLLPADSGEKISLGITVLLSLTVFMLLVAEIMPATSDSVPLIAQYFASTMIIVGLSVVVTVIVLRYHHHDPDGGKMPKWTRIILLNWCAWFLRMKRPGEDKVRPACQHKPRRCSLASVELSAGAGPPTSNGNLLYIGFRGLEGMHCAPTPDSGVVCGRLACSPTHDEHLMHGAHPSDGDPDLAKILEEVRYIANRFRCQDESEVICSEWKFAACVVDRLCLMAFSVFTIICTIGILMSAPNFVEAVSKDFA

human α9α10 nicotinic acetylcholine receptor (nAChR) (human), sequence (Q9UGM1 23-479, chain 1 of 2): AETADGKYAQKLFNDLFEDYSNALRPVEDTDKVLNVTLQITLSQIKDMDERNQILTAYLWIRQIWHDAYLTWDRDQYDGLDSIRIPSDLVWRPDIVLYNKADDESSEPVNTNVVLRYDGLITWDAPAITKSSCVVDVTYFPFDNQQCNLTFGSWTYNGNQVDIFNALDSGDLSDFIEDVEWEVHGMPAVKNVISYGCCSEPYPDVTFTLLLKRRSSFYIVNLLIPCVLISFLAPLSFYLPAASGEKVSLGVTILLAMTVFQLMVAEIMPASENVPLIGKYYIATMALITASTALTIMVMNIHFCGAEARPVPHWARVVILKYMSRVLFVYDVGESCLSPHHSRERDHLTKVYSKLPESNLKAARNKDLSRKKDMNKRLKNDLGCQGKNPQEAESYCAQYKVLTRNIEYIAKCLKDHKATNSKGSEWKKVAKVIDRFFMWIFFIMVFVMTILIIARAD
human α9α10 nicotinic acetylcholine receptor (nAChR) (human), sequence (Q9GZZ6 25-450, chain 2 of 2, further chain): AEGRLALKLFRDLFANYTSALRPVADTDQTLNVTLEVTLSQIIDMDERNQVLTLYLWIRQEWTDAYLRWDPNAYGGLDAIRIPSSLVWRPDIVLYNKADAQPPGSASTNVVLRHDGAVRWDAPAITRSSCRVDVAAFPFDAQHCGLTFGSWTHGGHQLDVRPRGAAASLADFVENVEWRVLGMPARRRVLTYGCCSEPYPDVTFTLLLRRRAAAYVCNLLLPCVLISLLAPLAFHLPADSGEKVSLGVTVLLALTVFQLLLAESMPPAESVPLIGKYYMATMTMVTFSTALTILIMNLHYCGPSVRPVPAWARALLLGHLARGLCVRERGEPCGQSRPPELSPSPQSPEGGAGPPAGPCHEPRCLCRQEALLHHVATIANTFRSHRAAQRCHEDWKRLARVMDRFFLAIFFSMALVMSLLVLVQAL

## GCCTDPRC(Cit)(I-3-Y)QCY [RgIA4]
[1]; at 8 h
  area under the curve, % of the total: 26.3%
[1]; pH 7.3
  share of intact (globular) peptide over time: minority component

## [C3Pen;14R]RgIA5 (peptide)
[2]
  IC50 (nM), block of the acetylcholine response, voltage-clamped Xenopus oocytes: 0.5 nM

## α-conotoxin ImI
[3]
  IC50: 69.3 ± 15.5 nM
